Patent EP2386565A2, “Compounds and methods to inhibit or augment an inflammatory response” (Cambridge Enterprise Ltd., priority 1999, dated 2000)
Positions of bridges follow the written chain, without caps; N, C: chain ends. Non-standard residues stand in square brackets, D forms with d. Residues, ends and D or L forms follow the SMILES beside them. No end group written: not given here.

Key:
[1] = tested on: SDF-1α induced THP-1 migration; assay: THP-1 trans-well migration assay, SDF-1α as chemoattractant; assay type: cell-based, human; conditions: for ED50 (µM) versus SDF-1α: inhibition of THP-1 migration, n.s./ns = not statistically significant
Experimental: (§1) To determine whether an agent inhibits a chemokine-induced activity, such as macrophage recruitment, varying amounts of the agent are mixed with cells in the presence of a known chemoattractant. For example, a range of known concentrations of an agent, e.g., a chemokine peptide, is incubated with a defined number (e.g., 10^4 - […]) of human THP-1 monocyte cells in individual wells of the top compartment of a trans-well plate. Chemokine (such as MCP-1, MIP1α, IL8 or SDF-1α), at a concentration known to cause significant migration of THP-1 cells in the trans-well migration assay, is placed in the lower compartment (Figure 1). Cells are then incubated at 37°C for a period sufficient to allow migration, e.g., 4 hours. After incubation, the cells are gently removed from the top of the filter with a pipette, 20 µl of 20 mM EDTA in simple PBS is added into each top well, and incubated for 20 minutes at 4°C. The filter is carefully flushed with media using a gentle flow, and removed. A standard curve consisting of a two-fold dilution series of THP-1 cells (in 29 µl) is prepared to accurately quantify the number of cells that have migrated. Migrated cells are stained with 3 µl of MTT stock dye solution which is added directly into each well (5 mg/ml in RPMI-1640 without phenol red, Sigma Chemical Co.) and incubated at 37°C for 4 hours. The media is carefully aspirated from each well, and the converted dye is solubilized by 20 µl of DMSO. Absorbance of converted dye is measured at a wavelength of 595 nm using an ELISA plate reader. The number of migrated cells in each well is then determined by interpolation of the standard curve (see also Imai et al.,J. Biol. Chem., 272, 15036 (1997)).
(§2) For this assay, THP-1 cells were maintained at a density of 4 × 10^5 cells per ml in RPMI-1640 supplemented with 10% fetal calf serum + 20 µM 2-mercaptoethanol. Chemotaxis was induced in a 96-well disposable chemotaxis chamber fitted with a 5 µM polycarbonate filter (PVP free, ChemoTX, Neuroprobe Inc., Cabin John). Twenty-nine µl of chemoattractant (recombinant human chemokine; 50 ng/ml, i.e., 5.9 nM) or control (100 ng/ml TGFβ) was added to the lower compartment of each well. The framed filter was aligned with the holes in the corner of the filter frame and placed over the wells.
(§3) Five × 10^4 THP-1 cells in 25 µl of RPMI-1640 were added to the upper compartment. Peptides were dissolved in Milli Q water and then serially diluted in culture medium. In most cases, the serially diluted peptides were added to the upper compartment of the chemotaxis chamber. The chamber was incubated at 37°C in a humidified atmosphere of 5% CO2 for 4 hours.
(§4) After incubation, the cells were gently removed from the top of the filter with a pipette, 20 µl of 20 mM EDTA in PBS was added into each top well, and the mixture was incubated for 20 minutes at 4°C. The filter was then carefully flushed with media using a gentle flow, and removed. A standard curve was prepared to accurately quantify the number of THP-1 cells that had migrated. The curve was based on a two-fold dilution series of THP-1 cells (top standard 100,000 cells in 29 µl). Cells which had migrated, and in separate wells, the cells in the standards, were stained with 3 µl of MTT stock solution which was added directly into each well (5 mg/ml in RPMI 1640 without phenol red, Sigma Chemical Co.) and incubated at 37°C for 4 hours. The media was carefully aspirated from each well, and the converted dye was solubilized by 20 µl of DMSO. Absorbance of converted dye was measured at a wavelength of 595 nm using an ELISA plate reader. The number of cells that had migrated in each well was determined by interpolation of the standard curve.
(§5) To investigate the receptor specificity of peptide 3 inhibition, the ED50 was determined for peptide 3(1-12)[MCP-1] (SEQ ID NO:1) inhibition of THP-1 migration induced by chemokines which signal through different receptors than MCP-1 receptors. […]

[2] = tested on: MCP-1 induced THP-1 migration; assay: THP-1 trans-well migration assay, MCP-1 as chemoattractant; assay type: cell-based, human; conditions: for % inhibition at 100 µM versus MCP-1: THP-1 migration, agent at 100 µM with the cells, n.s. or dash = no statistically significant inhibition; for ED50 (µM) versus MCP-1: inhibition of THP-1 migration, n.s./ns = not statistically significant; for ED50 v MCP-1: MCP-1 induced chemotaxis of THP-1 cells
Experimental: as §1
Any method suitable for counting cells can be used, for example, counting with a hemocytometer, incubation of the cells with MTT (see above), or FACS analysis. A negative control assay is also performed, using TGF-β or another non-chemokine chemoattractant (e.g., IL1β or TNFα). To assess whether the agent is cytotoxic, the same concentrations of agent are incubated with THP-1 cells. Agents which 1) are not cytotoxic at levels which inhibit migration, 2) are ineffective at inhibiting the negative control-induced migration, and 3) reduce or inhibit chemokine-induced THP-1 migration, are agents which fall within the scope of the invention.
as §2, with “Twenty-nine µl of chemoattractant (recombinant human chemokine; 50 ng/ml, i.e., 5.9 nM) or control (100 ng/ml TGFβ) was added to the lower compartment of each well.” left out
as §3
as §4, with “Absorbance of converted dye was measured at a wavelength of 595 nm using an ELISA plate reader. The number of cells that had migrated in each well was determined by interpolation of the standard curve.” left out

[3] = tested on: MIP1α induced THP-1 migration; assay: THP-1 trans-well migration assay, MIP1α as chemoattractant; assay type: cell-based, human; conditions: for ED50 (µM) versus MIP1α: inhibition of THP-1 migration, n.s./ns = not statistically significant
Experimental: as §1, §2, §3, §4, §5

[4] = target: T1, Duffy Antigen Receptor for Chemokines (DARC) (Homo sapiens, UniProt Q16570); assay: DARC binding: competition with 125I-MCP-1 on red blood cells; conditions: for DARC binding (µM): ns = not significantly different from control, >100 = not determined
T1 sequence (Q16570 1-336): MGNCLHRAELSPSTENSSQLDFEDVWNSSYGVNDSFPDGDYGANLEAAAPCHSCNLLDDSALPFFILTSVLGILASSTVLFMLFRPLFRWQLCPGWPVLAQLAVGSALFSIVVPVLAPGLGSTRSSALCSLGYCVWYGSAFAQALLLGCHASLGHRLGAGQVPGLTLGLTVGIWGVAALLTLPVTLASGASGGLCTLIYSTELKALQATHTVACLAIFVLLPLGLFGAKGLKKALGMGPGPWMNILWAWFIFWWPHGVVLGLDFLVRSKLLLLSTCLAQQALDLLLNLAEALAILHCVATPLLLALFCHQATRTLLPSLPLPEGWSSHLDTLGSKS

[5] = THP-1 migration, agent at 100 µM, n.s. or dash = no statistically significant inhibition

Row | Compound | % inhibition at 100 µM versus SDF-1α [1, 5] | ED50 (µM) versus SDF-1α [1] | % inhibition at 100 µM versus MCP-1 [2] | % inhibition at 100 µM versus MCP-1 ([2]; listed as Peptide 1[MCP-1]) [%] | % inhibition at 100 µM versus MCP-1 ([2]; listed as peptide 1[MCP-1]) [%] | ED50 (µM) versus MCP-1 [2] | ED50 (µM) versus MCP-1 ([2]; listed as Peptide 1[MCP-1]) [µM] | % inhibition of the MCP-1 induced migration at 100 µM ([2]; peptide introduced with the chemokine in the lower compartment) [%] | % inhibition at 100 µM versus MIP1α [3, 5] | ED50 (µM) versus MIP1α [3] | DARC binding (µM) [4] | potency as inhibitor of THP-1 migration induced by MCP-1 relative to the D-ala derivative [2] [fold] | ED50 v MCP-1 ([2]; listed as CRD-Cys13Leu4Ile11peptide 3(3-12)[MCP-1]) [nM] | ED50 v MCP-1 ([2]; listed as NR58-3.14.3) [nM] | Duffy selectivity / DARC specificity ratio ([4]; estimated ka for binding to red blood cells divided by average inhibitory ED50)
1 | CC[C@H](C)[C@H](NC(=O)[C@H](C)NC(=O)[C@H](CC(=O)O)NC(=O)[C@@H]1CCCN1C(=O)[C@H](CCC(N)=O)NC(=O)[C@H](C)N)C(=O)N[C@@H](CC(N)=O)C(=O)N[C@@H](C)C(=O)N1CCC[C@H]1C(=O)N[C@H](C(=O)N[C@H](C(=O)N[C@@H](CS)C(=O)N[C@@H](CS)C(=O)O)[C@@H](C)O)C(C)C [Peptide 1] (H-AQPDAINAPVTCC-OH; N-terminus and C-terminus assumed) | n.s. | n.s. | n.s.^b | 10 | 10 | n.s.^b | > 100 | 48 | n.s.^b | n.s.^b |  |  |  |  | 
2 | =cvaekpsksstirrysc= ([dC][dV][dA][dE][dK][dP][dS][dK][dS][dS][dT][dI][dR][dR][dY][dS][dC]; bridge 1-17 (inferred); not fully specified; printed as =cvaekpsksstirrysc=) |  | ns |  |  |  | ns |  |  |  | ns | ns |  |  |  | 
3 | CSYRRITSSKSPKEAVC |  | ns |  |  |  | ns |  |  |  | ns | ns |  |  |  | 
4 | CC[C@@H](C)[C@H]1NC(=O)[C@@H](CCC(N)=O)NC(=O)[C@H](N)CSSC[C@H](C(N)=O)NC(=O)[C@@H](CC(C)C)NC(=O)[C@@H](CC(=O)O)NC(=O)[C@H]2CCCN2C(=O)[C@@H](CCCCN)NC(=O)[C@@H](CCC(N)=O)NC(=O)[C@@H](CCCCN)NC(=O)[C@@H](Cc2c[nH]c3ccccc23)NC1=O (H-[dC][dQ][dI][dW][dK][dQ][dK][dP][dD][dL][dC]-NH2; disulfide 1-11) |  |  |  |  |  |  |  |  |  |  |  | 1000 | 1 to 10 | 10 | > 100
